Laboratory results reported in patent US20250302866A1, “POLYMER AGENTS FOR CARDIOPULMONARY RESUSCITATION” (VIRGINIA COMMONWEALTH UNIVERSITY, priority 2019, published 2025).

Assays:
[1] = tested on: rat model of cardiac arrest and cardiopulmonary resuscitation; assay: Coronary perfusion pressure, defibrillations and arrhythmia in a rat model of cardiac arrest and CPR; type: in vivo, Sprague-Dawley rats; details: mean±SD
Method: (§1) Male Sprague-Dawley rats weighing 450-550 g were utilized in this study. After induction of anesthesia with inhalation of CO2 for about 30 seconds, the animals were anesthetized by intraperitoneal injection of pentobarbital (45 mg/kg). Additional doses (10 mg/kg) were administered when required to maintain anesthesia. After no response to stimuli, the animals were shaved. The trachea was orally intubated with a 14-G cannula mounted on a blunt needle (Abbocath-T; Abbott Hospital Products Division, North Chicago, IL, USA) with a 145-degree angled tip. End-tidal CO2 was continuously monitored with a side-stream infrared CO2 analyzer (Capstar-100 Carbon Dioxide Analyzer; CWE, Ardmore, PA) interposed between the tracheal cannula and the ventilator. A conventional lead II EKG was continuously monitored. Through the left external jugular vein, a PE-50 catheter (Becton Dickinson, Sparks, MD, USA) was advanced into the right atrium for measurement of right atrial pressures. A 3-F catheter (Model C-PMS-301J; Cook Critical Care, Bloomington, IN, USA) was advanced through the right external jugular vein into the right ventricle. For blood pressure measurements within the descending aorta and PEG-20k administration, PE-50 catheters were advanced into the descending aorta from the left femoral artery and the right femoral artery respectively. […]

[2] = tested on: rat model of cardiac arrest and cardiopulmonary resuscitation; assay: Post-resuscitation myocardial function by echocardiography (CO, EF, MPI); type: in vivo, Sprague-Dawley rats; details: 2, 4, and 6 hours after ROSC; PEG-20k vs other 3 groups, epinephrine vs saline placebo and saline-A; p<0.05; FIG. 2
Method: as §1

[3] = tested on: rat model of cardiac arrest and cardiopulmonary resuscitation; assay: Buccal microcirculation (MFI, PVD) by side-stream dark-field imaging; type: in vivo, Sprague-Dawley rats; details: 1, 3, and 5 hours after ROSC; PEG-20k vs other 3 groups; p<0.05; FIG. 3
Method: as §1

[4] = tested on: rat model of cardiac arrest and cardiopulmonary resuscitation; assay: Duration of survival after resuscitation; type: in vivo, Sprague-Dawley rats; details: 6 resuscitated rats in each group
[5] = tested on: patients with out-of-hospital cardiac arrest; details: prehospital epinephrine use; cited from earlier work
patients with SCA = details: cited from earlier work

## CNC[C@H](O)c1ccc(O)c(O)c1 [Epinephrine]
[1]; after resuscitation
  Arrhythmia duration: 14.00 ± 5.35
[1]; defibrillations required for conversion to viable rhythm and ROSC, drug infused for 3 minutes after 4 minutes of precordial compression
  Number of defibrillations: 5.50 ± 2.88
[2]
  PR myocardial function (CO, EF, MPI): increased the severity of PR myocardial dysfunction
[3]
  Buccal microcirculation PVD and MFI values: significantly decreased
[4]
  Rats survived more than 24 hours: one
[5]
  Chance of ROSC before hospital arrival: increased chance of ROSC
  Chance of survival and good functional outcomes 1 month after the event: decreased chance of survival and good functional outcomes
Patients with SCA
  Rate of ROSC vs placebo: significantly higher rate of ROSC than placebo
Patients with SCA; vs placebo group
  Rate of survival with a favorable neurologic outcome: as low as the rate in the placebo group
